In data set [1] the target is T1, Solute carrier organic anion transporter family member 1B1 (Homo sapiens, UniProt Q9Y6L6).
T1 sequence (Q9Y6L6 whole entry): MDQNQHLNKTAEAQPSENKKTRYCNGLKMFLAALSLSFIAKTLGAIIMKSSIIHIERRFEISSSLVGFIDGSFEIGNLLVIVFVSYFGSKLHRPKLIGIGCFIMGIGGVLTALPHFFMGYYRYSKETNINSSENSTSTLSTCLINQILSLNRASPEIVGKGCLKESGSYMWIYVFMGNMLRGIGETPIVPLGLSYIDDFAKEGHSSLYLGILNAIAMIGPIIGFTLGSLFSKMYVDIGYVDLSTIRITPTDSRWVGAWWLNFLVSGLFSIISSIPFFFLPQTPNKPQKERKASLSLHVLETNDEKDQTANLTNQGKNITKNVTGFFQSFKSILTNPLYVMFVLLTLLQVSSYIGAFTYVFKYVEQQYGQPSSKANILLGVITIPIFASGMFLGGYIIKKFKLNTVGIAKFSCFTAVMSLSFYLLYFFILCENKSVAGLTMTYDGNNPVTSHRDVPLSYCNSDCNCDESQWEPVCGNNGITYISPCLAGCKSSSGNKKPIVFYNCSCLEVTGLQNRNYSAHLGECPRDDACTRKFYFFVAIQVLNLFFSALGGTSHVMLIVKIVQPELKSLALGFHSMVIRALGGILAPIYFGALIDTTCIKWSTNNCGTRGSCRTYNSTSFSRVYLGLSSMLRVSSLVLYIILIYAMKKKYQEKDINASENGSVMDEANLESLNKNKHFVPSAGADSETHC
Description: (§1) TP_TRANSPORTER: uptake in Xenopus laevis oocytes. Format: functional, cell-based. The settings on record: oocyte.

Substrate in data set [2]: N[C@@H](Cc1cc(I)c(Oc2cc(I)c(O)c(I)c2)c(I)c1)C(=O)O
The description is as §1. It is filed as functional, cell-based, Oocyte.

Substrate in data set [3]: N[C@@H](Cc1cc(I)c(Oc2ccc(O)c(I)c2)c(I)c1)C(=O)O
Described as §1. Format: functional, cell-based, Oocyte.

As to `CCCCC[C@H](O)/C=C/[C@H]1[C@H](O)CC(=O)[C@@H]1C/C=C\CCCC(=O)O` [DINOPROSTONE], in data set [1], the Activity entry was “substrate [+]”.

Regarding `C[C@]12CC[C@@H]3c4ccc(O)cc4CC[C@H]3[C@@H]1CC[C@@H]2O[C@@H]1O[C@H](C(=O)O)[C@@H](O)[C@H](O)[C@H]1O` [ESTRADIOL 17B GLUCURONIDE], the Activity result in data set [1] was “substrate [+]”.

Consider `CCCCC/C=C\C\C=C/C=C/C=C/[C@@H](SC[C@@H](NC(=O)CC[C@H](N)C(=O)O)C(=O)NCC(=O)O)[C@@H](O)CCCC(=O)O` [LEUKOTRIEN C4], for which the Activity result in data set [1] was “substrate [+]”.

Turning to `CCCCC/C=C\C\C=C/C=C/C=C/[C@@H](SC[C@H](N)C(=O)O)[C@@H](O)CCCC(=O)O` [LEUKOTRIEN E4], the Activity result in data set [1] is “substrate [+]”.

As to `C[C@]12CC[C@H](OS(=O)(=O)O)CC1=CC[C@@H]1[C@@H]2CC[C@]2(C)C(=O)CC[C@@H]12` [PRASTERONE SULFURIC ACID], the Activity entry in data set [1] was “substrate [+]”.

For `CCCCC[C@H](O)/C=C/[C@H]1OC(O)C[C@H](O)[C@@H]1C/C=C\CCCC(=O)O` (stereo partly drawn) [THROMBOXANE B2], in data set [1], the Activity result was “substrate [+]”.

B1: Solute carrier organic anion transporter family member 1B1 (Homo sapiens) (protein)
chain: MDQNQHLNKTAEAQPSENKKTRYCNGLKMFLAALSLSFIAKTLGAIIMKSSIIHIERRFEISSSLVGFIDGSFEIGNLLVIVFVSYFGSKLHRPKLIGIGCFIMGIGGVLTALPHFFMGYYRYSKETNINSSENSTSTLSTCLINQILSLNRASPEIVGKGCLKESGSYMWIYVFMGNMLRGIGETPIVPLGLSYIDDFAKEGHSSLYLGILNAIAMIGPIIGFTLGSLFSKMYVDIGYVDLSTIRITPTDSRWVGAWWLNFLVSGLFSIISSIPFFFLPQTPNKPQKERKASLSLHVLETNDEKDQTANLTNQGKNITKNVTGFFQSFKSILTNPLYVMFVLLTLLQVSSYIGAFTYVFKYVEQQYGQPSSKANILLGVITIPIFASGMFLGGYIIKKFKLNTVGIAKFSCFTAVMSLSFYLLYFFILCENKSVAGLTMTYDGNNPVTSHRDVPLSYCNSDCNCDESQWEPVCGNNGITYISPCLAGCKSSSGNKKPIVFYNCSCLEVTGLQNRNYSAHLGECPRDDACTRKFYFFVAIQVLNLFFSALGGTSHVMLIVKIVQPELKSLALGFHSMVIRALGGILAPIYFGALIDTTCIKWSTNNCGTRGSCRTYNSTSFSRVYLGLSSMLRVSSLVLYIILIYAMKKKYQEKDINASENGSVMDEANLESLNKNKHFVPSAGADSETHC
A word on the Km: it is the concentration of substrate that gives half-maximal velocity. With B1, the Km in data set [2] was determined as 3 µM; in data set [3], 2.7 µM.

For the origin of these results see ChEMBL document CHEMBL2073974, “Identification of a novel gene family encoding human liver-specific organic anion transporter LST-1” (J Biol Chem, 1999).
